The target in the experiment is T1, APC (Homo sapiens, UniProt P04070).
T1 construct: begins at amino acid residue position 158 and ends at 419; The light chain is 155 amino acid residues in length; tissue Factor IX concentrate from Immuno AG, Vienna; thrombin from Enzyme Research Laboratories
In words: Activated partial thromboplastin time (APTT) coagulation assay of APC anticoagulant activity. Conditions: APTT assay in the presence of APC. In kind it is biochemical. On the procedure:
The effect of the synthetic peptides on APC anticoagulant activity were determined using the APTT assay in the presence of either normal citrate anticoagulated plasma (NHP) or protein S depleted plasma (PSDP). The assays were performed essentially as described. See Marlar et al., Blood, 59:1067-1072 […]; Suzuki et al., J. Biol. Chem., 258:163-168 (1983); Gruber et al., Blood, 73:639-642 (1989); Ohlin et al., Biochem., 29:644-651 (1990). NHP was purchased from George King Bio-Medical, Inc. (Overland Park, Kans.). PSDP was prepared from a normal human citrate-anticoagulated plasma pool from ten healthy donors. Protein S was immunodepleted from the NHP by immunoaffinity chromatography of NHP over an anti-protein S antibody column to form PSDP. The anti-protein S antibody column was prepared by coupling 100 mg of a monoclonal, high-affinity, calcium-independent anti-PS antibody, designated S7, to 30 ml of CNBr-activated Sepharose 4B (Pharmacia) as described in Example 2c1). Residual total protein S content in the resultant PSDP was less than 0.1% protein S as determined by quantitative immunoblotting, by solid-phase ELISA for total protein S and by electroimmunoassay.
For the APTT assay, APC was prepared as described in Example 2c2). The specific anticoagulant activity of APC was determined to be 250 Units/mg. The concentration of the APC used in the assay was initially optimized with respect to the sensitivity of the assay towards APC-induced prolongation of clotting time compared to clotting time without APC.
Once the optimal concentration of APC was determined, peptides from Table 2 were then separately admixed for a final concentration of 500 μM with 10 nM APC in 100 μl of TBS-BSA at pH 7.4 to form peptide-APC admixtures. The resulting admixtures were maintained for seven minutes at 37° C. Separate aliquots of peptides maintained under the same conditions in the absence of APC served as controls for the inhibitory effect of synthetic peptides on APC anticoagulant activity. After the maintenance period, 100 μl of NHP and 100 μl APTT-reagent Thrombosil (Ortho Diagnostics, Raritan, N.J.) were admixed into each peptide admixture and maintained for 200 seconds at 37° C. to form a pre-coagulation admixture. In some experiments, PSDP was used in the place of NHP to determine the effect of Protein S on the assay system. Coagulation was then initiated by the admixture of 100 μl of 30 mM CaCl2 in TBS prewarmed to 37° C. to each of the pre-coagulation admixtures. The time for clot formation was measured by an Electra 700 Automatic Coagulation Timer (Medical Laboratory Automation, Inc., Mount Vernon, N.Y.). Each peptide's effect was determined in duplicate.
Additional assays were performed to compare the specificity of the inhibitory effect of peptide-(390-404) on APC anticoagulant activity. Both APTT and Xa-1-stage assays were performed with peptide-(390-404) and with the same peptide synthesized in the reverse order, peptide-(404-390), at concentrations of the peptides ranging from 0 μM to 40 μM. In APTT assays performed as described above in the presence of NHP, APC was used at a concentration of 2.5 nM. For APTT assays in the presence of PSDP, APC was used at a concentration of 5 nM. […]
Once the optimal concentration of APC was determined, anti-(390-404) was separately admixed ranging in concentration from 0.0 to 240 nM with APC in 200 μl of TBS-BSA and 30 mM CaCl2 at pH 7.4 to form an anti-(390-404)-APC immunoreaction admixture pre-maintenance solution. […]

Data on one substance can be found in patent US5279956A, “Activated protein C polypeptides and anti-peptide antibodies, diagnostic methods and systems for inhibiting activated protein C” (The Scripps Research Institute, priority 1991, dated 1994).

No end group written: not given here.

T1 sequence (P04070 212-461): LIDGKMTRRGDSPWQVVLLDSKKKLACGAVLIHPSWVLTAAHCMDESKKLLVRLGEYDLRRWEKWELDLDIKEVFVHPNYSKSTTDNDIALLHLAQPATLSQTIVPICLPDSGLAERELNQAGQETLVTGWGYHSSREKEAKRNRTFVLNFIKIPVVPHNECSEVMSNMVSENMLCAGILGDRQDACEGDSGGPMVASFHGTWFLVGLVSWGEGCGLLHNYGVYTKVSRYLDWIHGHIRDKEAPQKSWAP
T1 sequence (P04070 43-197): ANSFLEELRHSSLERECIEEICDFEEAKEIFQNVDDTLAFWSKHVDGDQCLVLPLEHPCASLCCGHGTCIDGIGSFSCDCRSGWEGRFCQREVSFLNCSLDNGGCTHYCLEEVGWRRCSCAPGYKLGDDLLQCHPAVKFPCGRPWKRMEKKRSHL

For the substance “KRNRTFVLNFIKIPV-NH2 [peptide-(311-325), KRNRTFVLNFIKIPV]”, the IC50 stood at 20 µM and the IC90 stood at 50 µM.

One may read the IC50 as the concentration needed to halve the response being measured. For orientation: IC90 means the concentration at which the effect reaches the 90% level.
